In PMC7699745, “The Search for New Anticonvulsants in a Group of (2,5-Dioxopyrrolidin-1-yl)(phenyl)Acetamides with Hybrid Structure—Synthesis and In Vivo/In Vitro Studies” (International Journal of Molecular Sciences, 2020):
Where “and” joins values, the source holds several entries; their conditions need not be identical. Identical values can stand only once. Like-named read-outs stand apart in the source and are kept apart here.

Experiments:
[1] = test system: MES seizures, mice; test: Maximal electroshock (MES) seizure test; type: in vivo; details: Mus musculus, ip; for responders at 100 mg/kg: 0.5 h, i.p.; for ED50: at TPE (0.5 h; LTG 1.0 h), 95% confidence intervals in parentheses
[2] = test system: 6 Hz (32 mA) seizures, mice; test: Psychomotor 6 Hz (32 mA) seizure model; type: in vivo; details: Mus musculus, ip; for responders at 100 mg/kg: 0.5 h, read-out: 6 Hz (32 mA) test, number of mice protected / number of mice tested (converted)
[3] = test system: Na+ channel (site 2); test: Radioligand binding, Na+ channel (site 2); details: 10 µM; rat cerebral cortex
Experimental: (§1) Taking into consideration the structural similarities of molecules described in the current manuscript with their chemical prototypes AS-1 and DK-1, the binding studies toward aforementioned molecular targets were performed commercially for several active substances from each subseries (3, 4, 21, 24, 25, 27, 29, and 30). Furthermore, we also tested two other and well-known targets for AEDs, namely, the Cav2.2 (N-type) calcium channel and gamma-aminobutyric acid (GABA)-A receptor. With the aim of excluding potentially dangerous proarrhythmic properties for each compound, their interaction with the potassium (hERG) channel was also tested.
(§2) Binding studies were carried out commercially in Eurofines Laboratories (Poitiers, France). The functional assays were performed in Eurofins Panlabs Discovery Services Taiwan, Ltd. (New Taipei City, Taiwan). All procedures are described elsewhere (for details, see Table S4 in Supplementary Materials).
(§3) Binding studies were carried out commercially in Eurofines Laboratories (Poitiers, France). The
(§4) functional assays were performed in Eurofins Panlabs Discovery Services Taiwan, Ltd. (New Taipei
(§5) City, Taiwan). All procedures are described elsewhere (Table S4).
Table S4. In vitro binding and functional assays. […]

[4] = target: T1, Cav1.2 channel (Rattus norvegicus, UniProt P22002); test: Radioligand binding, Cav1.2 channel; parameters: inhibition: dose or concentration left out as unconfirmed; details: for inhibition: rat cerebral cortex, read-out: % Inhibition of Control Specific Binding, Cav1.2 Channel (Antagonist Radioligand)
T1 construct: tissue Eurofins (Poitiers, France), contract assay; host or cells: rat cerebral cortex (own knowledge of the vendor's assay)
T1 sequence (P22002 whole entry): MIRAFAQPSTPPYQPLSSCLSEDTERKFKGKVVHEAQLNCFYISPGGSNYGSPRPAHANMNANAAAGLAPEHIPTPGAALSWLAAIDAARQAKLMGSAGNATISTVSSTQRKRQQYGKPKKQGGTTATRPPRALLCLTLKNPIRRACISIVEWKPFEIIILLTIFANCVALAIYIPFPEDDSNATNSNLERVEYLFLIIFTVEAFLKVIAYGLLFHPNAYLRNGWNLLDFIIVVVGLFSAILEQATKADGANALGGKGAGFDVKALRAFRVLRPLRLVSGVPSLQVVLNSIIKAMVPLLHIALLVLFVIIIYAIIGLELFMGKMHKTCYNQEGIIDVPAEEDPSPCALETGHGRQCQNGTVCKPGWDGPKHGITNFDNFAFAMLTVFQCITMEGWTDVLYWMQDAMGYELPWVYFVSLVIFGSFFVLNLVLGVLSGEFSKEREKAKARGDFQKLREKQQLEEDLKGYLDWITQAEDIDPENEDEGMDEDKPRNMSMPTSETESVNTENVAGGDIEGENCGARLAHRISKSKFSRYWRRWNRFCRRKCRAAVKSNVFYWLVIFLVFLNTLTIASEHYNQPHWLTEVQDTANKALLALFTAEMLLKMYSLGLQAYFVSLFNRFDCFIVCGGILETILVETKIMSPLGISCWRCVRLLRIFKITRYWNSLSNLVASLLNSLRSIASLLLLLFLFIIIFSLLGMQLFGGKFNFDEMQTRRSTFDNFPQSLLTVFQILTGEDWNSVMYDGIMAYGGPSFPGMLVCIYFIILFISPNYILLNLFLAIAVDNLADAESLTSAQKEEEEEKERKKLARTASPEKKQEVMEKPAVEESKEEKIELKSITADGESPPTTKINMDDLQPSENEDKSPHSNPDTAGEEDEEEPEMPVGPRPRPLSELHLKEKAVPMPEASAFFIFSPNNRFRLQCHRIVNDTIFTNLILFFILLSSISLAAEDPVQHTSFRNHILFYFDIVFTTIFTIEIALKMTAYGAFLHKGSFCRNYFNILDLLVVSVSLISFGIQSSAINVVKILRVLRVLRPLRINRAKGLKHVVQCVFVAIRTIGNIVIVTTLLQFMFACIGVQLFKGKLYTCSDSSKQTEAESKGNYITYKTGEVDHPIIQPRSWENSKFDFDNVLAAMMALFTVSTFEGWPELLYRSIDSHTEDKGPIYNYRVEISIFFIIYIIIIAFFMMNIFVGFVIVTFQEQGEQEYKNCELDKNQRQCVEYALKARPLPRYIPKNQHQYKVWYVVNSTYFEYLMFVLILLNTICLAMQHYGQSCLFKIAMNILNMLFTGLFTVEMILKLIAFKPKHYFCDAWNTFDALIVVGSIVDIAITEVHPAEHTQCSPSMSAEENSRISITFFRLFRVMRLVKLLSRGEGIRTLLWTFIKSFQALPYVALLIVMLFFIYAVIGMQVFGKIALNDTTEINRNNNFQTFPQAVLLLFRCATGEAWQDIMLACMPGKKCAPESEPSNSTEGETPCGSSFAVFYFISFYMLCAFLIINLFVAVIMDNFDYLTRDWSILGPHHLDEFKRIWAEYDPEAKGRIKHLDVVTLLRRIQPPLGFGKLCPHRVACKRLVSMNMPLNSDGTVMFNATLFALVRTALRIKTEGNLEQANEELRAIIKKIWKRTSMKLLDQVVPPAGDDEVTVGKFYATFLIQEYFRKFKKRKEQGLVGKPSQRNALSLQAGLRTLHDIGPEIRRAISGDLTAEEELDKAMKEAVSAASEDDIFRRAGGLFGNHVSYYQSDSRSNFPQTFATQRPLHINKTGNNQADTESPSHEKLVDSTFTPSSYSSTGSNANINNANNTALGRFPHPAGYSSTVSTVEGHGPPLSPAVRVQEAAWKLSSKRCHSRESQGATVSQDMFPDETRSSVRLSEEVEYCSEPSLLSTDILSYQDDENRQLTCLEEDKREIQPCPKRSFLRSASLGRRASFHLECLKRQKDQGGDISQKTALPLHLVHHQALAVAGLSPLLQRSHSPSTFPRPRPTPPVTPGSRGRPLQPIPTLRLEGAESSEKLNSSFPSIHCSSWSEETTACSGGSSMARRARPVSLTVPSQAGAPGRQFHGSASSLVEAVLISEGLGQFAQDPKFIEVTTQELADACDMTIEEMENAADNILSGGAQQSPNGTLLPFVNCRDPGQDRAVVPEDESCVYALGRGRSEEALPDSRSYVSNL
T1 sequence (P54287 whole entry partner): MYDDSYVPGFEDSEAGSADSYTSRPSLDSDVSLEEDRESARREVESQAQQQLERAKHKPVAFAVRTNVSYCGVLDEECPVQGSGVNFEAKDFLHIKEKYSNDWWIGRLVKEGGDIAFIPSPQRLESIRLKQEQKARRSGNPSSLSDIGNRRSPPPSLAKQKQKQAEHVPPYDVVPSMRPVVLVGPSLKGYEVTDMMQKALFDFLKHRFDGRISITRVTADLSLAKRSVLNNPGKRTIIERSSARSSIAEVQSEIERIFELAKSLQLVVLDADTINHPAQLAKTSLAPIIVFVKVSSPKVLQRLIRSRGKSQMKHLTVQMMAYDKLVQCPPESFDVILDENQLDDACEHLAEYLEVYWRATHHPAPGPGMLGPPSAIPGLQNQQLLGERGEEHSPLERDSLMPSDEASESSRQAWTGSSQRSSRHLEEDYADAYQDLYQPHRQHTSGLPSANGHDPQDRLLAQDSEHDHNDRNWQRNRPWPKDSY
T1 sequence (P54290 25-944 partner limits assumed): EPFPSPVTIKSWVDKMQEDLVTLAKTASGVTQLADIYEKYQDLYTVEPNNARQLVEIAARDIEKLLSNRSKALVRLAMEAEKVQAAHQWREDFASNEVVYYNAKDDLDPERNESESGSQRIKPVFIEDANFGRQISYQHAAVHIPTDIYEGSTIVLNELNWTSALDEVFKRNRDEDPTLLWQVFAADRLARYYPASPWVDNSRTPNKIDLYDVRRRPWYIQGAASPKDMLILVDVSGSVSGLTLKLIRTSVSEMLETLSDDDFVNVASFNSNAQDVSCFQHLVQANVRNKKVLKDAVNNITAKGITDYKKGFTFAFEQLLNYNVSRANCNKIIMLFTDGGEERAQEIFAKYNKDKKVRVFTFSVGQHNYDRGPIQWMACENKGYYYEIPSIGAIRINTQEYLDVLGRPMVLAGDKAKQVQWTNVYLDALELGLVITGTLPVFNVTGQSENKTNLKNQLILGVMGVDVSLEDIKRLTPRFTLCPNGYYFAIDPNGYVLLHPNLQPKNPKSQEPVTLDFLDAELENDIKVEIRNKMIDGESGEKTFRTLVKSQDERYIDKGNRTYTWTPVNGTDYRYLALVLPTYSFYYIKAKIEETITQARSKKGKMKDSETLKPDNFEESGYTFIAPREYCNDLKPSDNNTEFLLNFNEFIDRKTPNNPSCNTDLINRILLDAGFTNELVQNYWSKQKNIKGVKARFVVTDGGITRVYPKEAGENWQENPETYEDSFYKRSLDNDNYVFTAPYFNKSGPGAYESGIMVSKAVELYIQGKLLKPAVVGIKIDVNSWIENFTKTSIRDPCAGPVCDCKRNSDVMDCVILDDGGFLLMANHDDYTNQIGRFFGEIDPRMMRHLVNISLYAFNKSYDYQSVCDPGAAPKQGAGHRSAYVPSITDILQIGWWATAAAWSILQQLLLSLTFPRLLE
T1 sequence (P54290 945-1091 partner limits assumed): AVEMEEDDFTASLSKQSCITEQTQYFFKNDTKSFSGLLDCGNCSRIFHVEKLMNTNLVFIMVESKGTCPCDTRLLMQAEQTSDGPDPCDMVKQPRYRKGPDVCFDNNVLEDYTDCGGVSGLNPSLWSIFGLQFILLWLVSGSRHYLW
Experimental: as §1, §2, §3, §4, §5
(§6) Table S4. In vitro binding and functional assays.
(§7) GABA-A receptor (α1,β2,γ2)
(§8) Potassium channel (hERG) 14
(§9) Cav1.2 (h) calcium ion channel cell based antagonist calcium flux assay 16,17

[5] = target: T2, Cav2.2 channel (Rattus norvegicus, UniProt Q02294); test: Radioligand binding, Cav2.2 channel; parameters: dose or concentration left out as unconfirmed; details: rat cerebral cortex; read-out: % Inhibition of Control Specific Binding, Cav2.2 Channel (Antagonist Radioligand)
T2 construct: tissue Eurofins (Poitiers, France), contract assay; host or cells: rat cerebral cortex (own knowledge of the vendor's assay)
Experimental: as §1, §2, §3, §4, §5, §6, §7, §8, §9

[6] = Metabolic stability in human liver microsomes; type: in vitro ADME; details: 120 min incubation with HLMs
Excerpt: Human liver microsomes (HLMs) were used for metabolic stability determination. Moreover, the most probable phase I reactions and structures of metabolites were proposed according to ion fragment analyses with the in silico support of MetaSite 6.0.1 software. […] On the other hand, an excellent metabolic stability of compound 24 was observed. Less than 4% of this derivative was converted into double-hydroxylated metabolite M1 (Figures S3, S4, and S7, Supplementary Materials). Finally, two monohydroxylated metabolites (M1, M2) were found in the reaction mixture with HLMs and 30, and around 17% of this compound was metabolized (Figures S5–S7, Supplementary Materials).
These assays were performed on human liver microsomes (HLMs), purchased from Sigma-Aldrich (St. Louis, MO, USA), according to [14].

[7] = target: CYP2C9 (Homo sapiens, UniProt P11712); test: Luminescent CYP2C9 P450-Glo assay; details: 10 and 25 µM
CYP2C9, sequence (P11712 whole entry): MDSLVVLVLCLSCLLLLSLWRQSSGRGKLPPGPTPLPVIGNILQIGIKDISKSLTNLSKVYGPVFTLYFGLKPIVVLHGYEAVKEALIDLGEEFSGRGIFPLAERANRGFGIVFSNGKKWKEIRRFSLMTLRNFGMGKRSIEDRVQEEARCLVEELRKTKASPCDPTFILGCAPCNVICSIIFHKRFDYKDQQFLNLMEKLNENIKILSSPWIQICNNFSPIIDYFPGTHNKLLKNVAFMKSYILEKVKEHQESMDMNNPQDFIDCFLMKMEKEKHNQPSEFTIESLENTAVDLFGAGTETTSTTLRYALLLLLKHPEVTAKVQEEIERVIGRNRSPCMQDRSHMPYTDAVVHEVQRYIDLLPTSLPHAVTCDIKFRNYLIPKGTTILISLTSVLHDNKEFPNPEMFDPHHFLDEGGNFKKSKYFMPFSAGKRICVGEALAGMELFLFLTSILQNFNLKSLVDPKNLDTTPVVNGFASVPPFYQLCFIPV

[8] = Rotarod test for acute neurological toxicity; details: mouse, in vivo, ip
[9] = test system: motor coordination of mice; test: Rotarod test for acute neurological toxicity; details: for Rotarod test, number of mice / number of mice tested: i.p., 100 mg/kg, 0.5 h
[10] = Parallel artificial membrane permeability assay (PAMPA)
Experimental: Passive diffusion was tested in the parallel artificial membrane permeability assay (PAMPA) and expressed as the permeability coefficient (Pe). A highly permeable compound, caffeine (CFN), and a poorly permeable compound, norfloxacin (NFX), were used as the references.
Precoated PAMPA Plate System Gentest™ was provided by Corning, (Tewksbury, MA, USA).

[11] = read-out: MES test, number of mice protected / number of mice tested (converted)

Row | Structure (SMILES) | responders at 100 mg/kg [1, 11] [%] | ED50 [1] [mg/kg] | responders at 100 mg/kg [2] [%] | % Inhibition of Control Specific Binding, Na+ Channel (Site 2) (Antagonist Radioligand) [3] [%] | inhibition [4] [%] | inhibition [5] [%] | parent compound remained in the reaction mixture [6] | effect on CYP2C9 activity [7] | TD50 at 0.5 h [8] [mg/kg] | impairment of motor coordination of mice ([9]; doses as high as 300 mg/kg) | Rotarod test, number of mice / number of mice tested [9] | Papp [10] [nm/s] | responders at 100 mg/kg ([1]; groups of four, read-out: protection in the MES test) [%] | ED50 ([2]; at TPE (0.5 h; LTG 1.0 h), 95% confidence intervals in parentheses) [mg/kg] | binding to voltage-gated calcium channels Cav1.2 ([4]; concentration of 10 µM) | compound converted into metabolites / metabolized [6]
1 | O=C(Nc1ccccc1F)C(c1ccccc1)N1C(=O)CCC1=O (stereo not drawn) [Compound 4, 2-(2,5-Dioxopyrrolidin-1-yl)-N-(2-fluorophenyl)-2-phenylacetamide] | 100 | 73.2 | 25 | 23.5 | 5 | 1.1 | 71.44% and 71.4% | blocked its activity | > 300 | did not impair motor coordination | 0/4 | 112 ± 7 | – | – | – | –
2 | O=C(NCCc1cccc(OC(F)(F)F)c1)C(c1ccccc1)N1C(=O)CCC1=O (stereo not drawn) [Compound 30, 2-(2,5-Dioxopyrrolidin-1-yl)-2-phenyl-N-(3-(trifluoromethoxy)phenethyl)acetamide] | 100 | 45.6 | 75 | 15.8 | 47.6 | 4 | 83.39% | blocked its activity | 162 | – | 0/4 | 132 ± 15 | 100 | 39.5 | moderate binding | around 17%
